Assay results taken from patent US10834950B2, “Organic compounds” (GIVAUDAN SA, priority 2013, dated 2020).

Assays:
[1] = Umami base flavour (aqueous NaCl, MSG, ribonucleotides) tasting by panel
[2] = Beef bouillon tasting by a panel of experienced tasters; details: 40 ppb added to beef bouillon
Method: A beef bouillon was prepared using bouillon cubes obtained from a local supermarket.

[3] = Milk drink (semi skim milk) tasting by panel; details: 5 ppm added to semi skim milk drink
[4] = Diluted soy sauce tasting by panel; details: 5 ppm added to diluted soy sauce
[5] = 5 ppm added to umami base flavour

Row | SMILES | taste of bouillon compared to the reference (panel) [2] | taste of umami base compared to the reference (panel) [1, 5] | taste of milk drink compared to the reference (panel) [3] | further results
1 | CCCCCCCCCCCC(=O)NC(Cc1ccccc1)C(=O)O (stereo not drawn) [Example 3, 2-(Dodecanoylamino)-3-phenylpropanoic acid] |  |  |  | taste of umami base compared to the reference (panel) ([1]; 50 ppm added to umami base flavour): more umami, and thicker, possessed a lot of mouthfeel and a nice body, and provided a cleaner taste than the reference
2 | CCCCCC/C=C\CCCC(=O)NC(Cc1ccccc1)C(=O)O (stereo not drawn) [Example 1, (Z)-2-(Dodec-5-enamido)-3-phenylpropanoic acid] | more umami, slightly more sweet, and the overall flavor profile lasts longer than the reference |  |  | 
3 | CCCCCC/C=C\CCCC(=O)NC(Cc1c[nH]c2ccccc12)C(=O)O (stereo not drawn) [(Z)-2-(dodec-5-enamido)-3-(1H-indol-3-yl)propanoic acid] |  | more umami than the reference | slightly increased creamy than the reference | 
4 | CCCCCCCCCCCCCC(=O)NC(Cc1c[nH]c2ccccc12)C(=O)O (stereo not drawn) [3-(1H-indol-3-yl)-2-tetradecanamidopropanoic acid] |  | more umami than the reference | very creamy aftertaste, and a nice and slightly dryness at the front compared to the reference | taste of soy sauce compared to the reference (panel) [4]: more mouthfeel, and fuller compared to the reference
5 | CCCCCCCCCCCC(=O)NC(Cc1c[nH]c2ccccc12)C(=O)O (stereo not drawn) [2-(dodecanoylamino)-3-(1H-indol-3-yl)propanoic acid] |  |  |  | taste of umami base compared to the reference (panel) ([1]; 20 ppm added to umami base flavour): more fatty mouthfeel than the reference
6 | CCCCCC/C=C\CCCC(=O)NC(Cc1ccc(O)cc1)C(=O)O (stereo not drawn) [Example 2, (Z)-2-(Dodec-5-enamido)-3-(4-hydroxyphenyl)propanoic acid] | slightly more umami, slightly more bitter and sweeter than the reference |  |  | 
